Measurements taken from US12403144B2, “HECT E3 ligase inhibitors and uses thereof” (IFOM FONDAZIONE ISTITUTO FIRC DI ONCOLOGIA MOLECOLARE, priority 2019, dated 2025).
Where a name gives a salt, the structure may show the parent alone.

Assays:
[1] = molecular target: T1, untagged HECT of NEDD4L (E3 ligase) (Homo sapiens, UniProt Q96PU5); assay: In vitro ubiquitination assay TR-FRET based, NEDD4L; format: biochemical; conditions: read-out: percentage of inhibition (NEDD4L)
T1 construct: using untagged HECT of NEDD4L (E3 ligase) instead of untagged HECT of NEDD4 wild-type (WT) (E3 ligase); made in house; host or cells: bacteria (printed for the NEDD4L HECT of the western-blot assay; not repeated here)
T1 sequence (Q96PU5 594-975 limits assumed): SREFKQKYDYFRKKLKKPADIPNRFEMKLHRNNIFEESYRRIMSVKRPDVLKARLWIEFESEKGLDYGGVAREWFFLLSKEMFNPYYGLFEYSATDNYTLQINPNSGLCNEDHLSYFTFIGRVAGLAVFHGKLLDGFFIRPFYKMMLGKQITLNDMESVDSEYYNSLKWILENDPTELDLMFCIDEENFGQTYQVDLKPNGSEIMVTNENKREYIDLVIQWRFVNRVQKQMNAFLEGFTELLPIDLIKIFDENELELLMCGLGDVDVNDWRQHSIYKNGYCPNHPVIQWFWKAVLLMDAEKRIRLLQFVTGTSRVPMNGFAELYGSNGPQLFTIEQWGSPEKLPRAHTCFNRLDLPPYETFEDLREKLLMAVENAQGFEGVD
Description: (§1) To determine the selectivity of identified NEDD4 inhibitors, it was quantitatively measured the self-ubiquitination process of the E3 HECT ligase belonging to NEDD4 family such as NEDD4L, HECW2 and ITCH in presence or not of some compounds such as 5, 9, 12, 29, 42, 45, 56, 58, 61, 77, 78, 85 and 94 employing TR-FRET based assays.
The assay was performed as described above in the paragraph titled “In vitro ubiquitination assay TR-FRET based” under the heading “2.1. NEDD4 UBIQUITINATION ASSAYS” using untagged HECT of NEDD4L (E3 ligase) instead of untagged HECT of NEDD4 wild-type (WT) (E3 ligase). In this case, final E1, E2 and E3 concentrations in the assay buffer (Tris-HCl pH 7.6 25 mM, NaCl 100 mM, MgCl2 5 mM and Tween 0.01%) were 30, 350 and 31.3 nanomolars, respectively. Untagged HECT NEDD4L (E3 ligase) enzyme was produced and purified as reported in E. Maspero et al. Methods Mol Biol. 1449:153-60 (2016) and in E. Maspero et al. EMBO Reports 12:342-349(2011).

[2] = molecular target: T2, His-MPB tagged HECT of HECW2 (E3 ligase) (Homo sapiens, UniProt Q9P2P5); assay: In vitro ubiquitination assay TR-FRET based, HECW2; format: biochemical; conditions: read-out: percentage of inhibition (HECW2)
T2 construct: using His-MPB tagged HECT of HECW2 (E3 ligase) instead of untagged HECT of NEDD4 wild-type (WT) (E3 ligase); made in house
Description: as §1
The assay was performed as described above in the paragraph titled “In vitro ubiquitination assay TR-FRET based” under the heading “2.1. NEDD4 UBIQUITINATION ASSAYS” using His-MPB tagged HECT of HECW2 (E3 ligase) instead of untagged HECT of NEDD4 wild-type (WT) (E3 ligase). In this case, final E1, E2 and E3 concentrations in the assay buffer (Tris-HCl pH 7.6 25 mM, NaCl 100 mM, MgCl2 5 mM and Tween 0.01%) were 30, 350 and 62.5 nanomolars, respectively. His-MPB tagged HECT of HECW2 (E3 ligase) enzyme was produced and purified as reported in E. Maspero et al. Methods Mol Biol. 1449:153-60 (2016) and in E. Maspero et al. EMBO Reports 12:342-349(2011).

DU145 cells = assay: CellTiter-Glo Luminescent Cell Viability Assay, DU145; format: cell-based; conditions: Homo sapiens, DU-145; 48 hours incubation; mean of at least two determinations; read-out: DU145 IC50 μM (antiproliferative activity)
From the text: (§2) CellTiter-Glo® Luminescent Cell Viability Assay (Promega, Catalog number: G7571) is a homogeneous method of determining the number of viable cells in culture based on quantitation of the present ATP, which indicates the presence of metabolically active cells. The homogeneous assay procedure involves addition of a single reagent (CellTiter-Glo® Reagent) directly to the cells, which leads to cell lysis and generation of a luminescent signal proportional to the amount of the ATP and the number of cells present in culture. The assay relies on the properties of a proprietary thermostable luciferase (Ultra-Glo® recombinant luciferase), which generates a luminescent signal.
(§3) DU145 cells (obtained from CLS Cell Lines Service GmbH item 300168) were grown in DMEM (Sigma Aldrich catalog number D6171-500 ml) supplemented with 10% Fetal Bovine Serum (Euroclone, catalog number. ECS0180L), 2 mM L-Glutamine (Euroclone catalog number LOBE17605F) and 100 U/ml penicillin-[…] streptomycin (EuroClone, ECB3001L). LNCaP cells (obtained from CLS Cell Lines Service GmbH item 300265) were grown in RPMI1640 (Lonza catalog number BE12-167F) supplemented with 10% Fetal Bovine Serum (Euroclone, catalog number. ECS0180L), 2 mM L-Glutamine (Euroclone catalog number LOBE17605F) and 100 U/ml penicillin-[…] streptomycin (EuroClone, ECB3001 L).
(§4) To determine the antiproliferative activity of the compounds, 3000 DU145 cells and 5000 LNCap cells were seeded in 96 multiwell plate (Sigma catalog number CLS9102) per well. 24 hours after seeding, the cells were incubated for 48 hours with different concentrations of the inhibitors (from 50 to 0 μM with a 3-fold dilution) dissolved in DMSO. After 48 hours, a volume of CellTiter-Glo® Reagent equal to the volume of cell culture medium was added. The content was mixed for 2 min to induce cell lysis. The luminescence was measured and recorded with Tecan Infinite 200 multimode plate reader after further 10 min at room temperature in order to obtain a stable luminescent signal.
(§5) The IC50 was calculated using GraphPad Software from the recorded luminescent signal.

LNCaP cells = assay: CellTiter-Glo Luminescent Cell Viability Assay, LNCaP; format: cell-based; conditions: Homo sapiens, 48 hours incubation, mean of at least two determinations, read-out: LNCaP IC50 μM (antiproliferative activity)
From the text: as §2, §3, §4, §5

T2 sequence (Q9P2P5 1237-1572 limits assumed): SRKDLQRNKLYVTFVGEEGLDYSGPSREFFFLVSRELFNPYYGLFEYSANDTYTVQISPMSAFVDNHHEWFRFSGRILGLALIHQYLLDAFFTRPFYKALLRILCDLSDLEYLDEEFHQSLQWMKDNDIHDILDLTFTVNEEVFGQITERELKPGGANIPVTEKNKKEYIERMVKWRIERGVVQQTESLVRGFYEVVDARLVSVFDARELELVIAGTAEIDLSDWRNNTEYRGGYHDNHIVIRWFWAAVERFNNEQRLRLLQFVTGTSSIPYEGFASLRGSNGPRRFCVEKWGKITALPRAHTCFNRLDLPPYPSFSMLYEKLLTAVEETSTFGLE

| SMILES | inhibition at 11 µM [1] | inhibition at 11 µM [2] | IC50 (DU145 cells) | IC50 (LNCaP cells) |
| --- | --- | --- | --- | --- |
| CN(C/C=C/C(=O)OCCOCCOCCOCCNC(=O)CCCC[C@@H]1SC[C@@H]2NC(=O)N[C@@H]21)CCCCN1c2ccccc2CCc2ccc(Cl)cc21 [Compound 94, 2-[2-(2-{2-[5-((3aS,4S,6aR)-2-Oxo-hexahydro-thieno[3,4-d]imidazol-4-yl)-pentanoylamino]-ethoxy}-ethoxy)-ethoxy]-ethyl (E)-4-{[4-(3-chloro-10,11-dihydro-dibenzo[b,f]azepin-5-yl)-butyl]-methyl-amino}but-2-enoate] | < 15% | < 15% | – | – |
| CONC(=O)/C=C/CN(C)CCCCN1c2ccccc2CCc2ccc(Cl)cc21 [Compound 85, (E)-4-[4-(3-Chloro-10,11-dihydro-5H-dibenzo[b,f]azepin-5-yl)butyl-methyl-amino]-N-methoxy-but-2-enamide maleate] | < 5% | < 5% | 11.3 µM | 16.3 µM |
| CONC(=O)/C=C/CNCCCCN1c2ccccc2CCc2ccc(Cl)cc21 [Compound 78, (E)-4-[4-(3-Chloro-10,11-dihydro-5H-dibenzo[b,f]azepin-5-yl)butylamino]-N-methoxy-but-2-enamide maleate] | < 5% | < 5% | – | – |
| C#CCON(C)C(=O)/C=C/CN(C)CCCCN1c2ccccc2CCc2ccc(Cl)cc21 [Compound 77, (E)-4-[4-(3-Chloro-10,11-dihydro-5H-dibenzo[b,f]azepin-5-yl)butyl-methyl-amino]-N-methyl-N-prop-2-ynoxy-but-2-enamide maleate] | < 15% | < 15% | – | – |
| CON(C)C(=O)/C=C/CN(C)CCCCN1c2ccccc2CCc2ccc(Cl)cc21 [Compound 9, (E)-4-[4-(3-Chloro-10,11-dihydro-5H-dibenzo[b,f]azepin-5-yl)butyl-methyl-amino]-N-methoxy-N-methyl-but-2-enamide] | < 5% | < 5% | – | – |
| CCOC(=O)/C=C/CCNCCCN1c2ccccc2CCc2ccc(Cl)cc21 [Compound 5, Ethyl (E)-5-[3-(3-chloro-10,11-dihydro-5H-dibenzo[b,f]azepin-5-yl)propylamino]pent-2-enoate maleate] | < 15% | < 15% | 7.68 µM | 10.9 µM |

More lines, now with the values ahead:

| inhibition at 11 µM [1] | inhibition at 11 µM [2] | IC50 (DU145 cells) | IC50 (LNCaP cells) | SMILES |
| --- | --- | --- | --- | --- |
| ≤ 20% | < 15% | – | – | CCOC(=O)/C=C/CNCCCCN1c2cc(Cl)ccc2C(=O)N(Cc2ccccc2)c2ccccc21 [Compound 56, Ethyl (E)-4-((4-(10-benzyl-3-chloro-11-oxo-10,11-dihydro-5H-dibenzo[b,e][1,4]diazepin-5-yl)butyl)amino)but-2-enoate maleate] |
| < 5% | < 5% | – | – | COC(=O)/C=C/CN(C)CCCCN1c2cc(Cl)ccc2C(=O)N(Cc2ccccc2)c2ccccc21 [Compound 58, Methyl (E)-4-{[4-(10-benzyl-3-chloro-11-oxo-10,11-dihydro-5H-dibenzo[b,e][1,4]diazepin-5-yl)butyl](methyl)amino}but-2-enoate maleate] |
| < 15% | < 5% | 6.81 µM | 6.67 µM | CCOC(=O)/C=C/CNCCCCN1c2ccccc2CCc2ccc(Cl)cc21.O=C(O)/C=C\C(=O)O [Compound 12, Ethyl (E)-4-[4-(3-chloro-10,11-dihydro-5H-dibenzo[b,f]azepin-5-yl)butylamino]but-2-enoate maleate] |
| ≤ 20% | < 20% | 4.97 µM | 5.69 µM | CCOC(=O)/C=C/CNCCCCN1c2ccccc2C(=O)N(Cc2ccccc2)c2ccc(Cl)cc21 [Compound 45, Ethyl (E)-4-{[4-(10-benzyl-7-chloro-11-oxo-10,11-dihydro-5H-dibenzo[b,e][1,4]diazepin-5-yl)butyl]amino}but-2-enoate maleate] |
| < 15% | < 15% | 9.18 µM | 6.49 µM | CCOC(=O)/C=C/CNCCCCN1c2cc(Cl)ccc2C(=O)N(C)c2ccccc21 [Compound 42, Ethyl (E)-4-{[4-(3-chloro-10-methyl-11-oxo-10,11-dihydro-5H-dibenzo[b,e][1,4]diazepin-5-yl)butyl]amino}but-2-enoate maleate] |
| ≤ 20% | < 15% | – | – | CCOC(=O)/C=C/CNCCCCN1c2ccccc2C(=O)N(C)c2ccc(Cl)cc21 [Compound 29, Ethyl (E)-4-{[4-(7-chloro-10-methyl-11-oxo-10,11-dihydro-5H-dibenzo[b,e][1,4]diazepin-5-yl)butyl]amino}but-2-enoate maleate] |
| < 5% | < 5% | – | – | CN(C/C=C/C#N)CCCCN1c2cc(Cl)ccc2C(=O)N(Cc2ccccc2)c2ccccc21 [Compound 61, (E)-4-{[4-(10-benzyl-3-chloro-11-oxo-10,11-dihydro-5H-dibenzo[b,e][1,4]diazepin-5-yl)butyl](methyl)amino}but-2-enenitrile maleate] |
